Experimental data as given in patent US10100366B2, “Methods of detecting cancers sensitive to cabozantinib” (Oregon Health & Science University, priority 2015, dated 2018).

Tests used:
[1] = test system: CD74-ROS1-rearranged lung adenocarcinoma; test: Patient case: crizotinib treatment, response by RECIST v1.1; type: in vivo, human; settings: one patient, 250 mg twice daily
Excerpt: A never smoker with metastatic lung adenocarcinoma involving the pleura received three cycles of first-line systemic therapy with cisplatin, pemetrexed, and bevacizumab (FIG. 1, FIG. 9).

Ba/F3 CD74-ROS1 cells = test: Immunoblot analysis of ROS1 and downstream effector phosphorylation, native CD74-ROS1 cells; type: cell-based, human; settings: 2 h treatment
Procedure: Ba/F3 CD74-ROS1 and CD74-ROS1D2033N […] cells were treated with the indicated concentrations of inhibitors for 2 h, pelleted, washed once in ice-cold PBS, and lysed in 200 μL of cell lysis buffer (Cell Signaling Technology) that was supplemented with 0.25% deoxycholate, 0.05% SDS, and protease and phosphatase inhibitors. Equal amounts of protein were extracted with SDS sample buffer for 15 min at 80° C. and resolved on 4-15% Tris-glycine or 4-12% Bis-Tris precast gels (Criterion; Bio-Rad). Proteins transferred to Immobilon-FL membranes (Millipore) were probed with: phospho-ROS1 [Cell Signaling Technology (CST); 3078, 1:1000], total ROS1 (CST; 3266, 1:1000), phospho-ERK1/2 (CST; 9101, 1:1000), total ERK2 (Santa Cruz; sc-1647, 1:2000), phospho-AKT (CST; 4060, 1:1000), AKT (BD Transduction Laboratories; 610860, 1:1000), pSHP2 (CST; 3703), pSTAT3 (CST, 9131), and GAPDH (Ambion; AM4300, 1:5000). Blots were imaged using either a LI-COR Odyssey imaging system or the Bio-Rad ChemiDoc imaging station according to the manufacturer's protocol for immunoblot detection with use of Infrared dye or horseradish peroxidase-conjugated secondary antibodies, respectively.

[2] = test system: ROS1-rearranged lung cancers; settings: phase 1 expansion cohort data; cited from earlier work
[3] = molecular target: T1, Ba/F3 cells expressing CD74-ROS1 D2033N (Homo sapiens, UniProt P08922, D2033N); test: Cell growth/viability assay (MTS), Ba/F3 CD74-ROS1 D2033N; type: cell-based
T1 construct: CD74 (fusion partner, N-terminal part of CD74); expressed in transfected cells; host or cells: Ba/F3 (murine pro-B), retroviral transduction, IL-3 withdrawn; the other entry of the earlier key: CD74 (P04233, HLA class II histocompatibility antigen gamma chain)
Procedure: (§1) CD74-ROS1D2033N was generated using site-directed mutagenesis by following manufacturer's protocol (Agilent). Ba/F3 cells were maintained at densities of 0.5-1.5×10^6 cells/mL and infected with retrovirus encoding native or mutant versions of human CD74-ROS1. GFP-based selection of transduced cells was performed with a FACSAria cell sorter (BD Biosciences). Stable cell lines were washed with complete medium to remove IL-3. Cells that grew out after IL-3 withdrawal were maintained in complete medium and used for in vitro assays.
(§2) Inhibitors were prepared as 1 mM stocks in DMSO prior to each experiment. […] Ba/F3 cells expressing CD74-ROS1 constructs were seeded (800 cells/well; 25 μL) into drug plates using a Multidrop Combi Reagent Dispenser (Thermo Scientific), and plates were incubated for 72 h at 37° C., 5% CO2. Viability was measured using a methanethiosulfonate (MTS)-based assay (CellTiter96 Aqueous One Solution; Promega) read on a Biotek Synergy 2 plate reader. Proliferation experiments were performed three independent times in triplicate.

[4] = molecular target: T2, Ba/F3 cells expressing native CD74-ROS1 (Homo sapiens, UniProt P08922); test: Cell growth/viability assay (MTS), Ba/F3 native CD74-ROS1; type: cell-based; settings: 72 h exposure, read-out: IC50, growth inhibition
T2 construct: CD74 (fusion partner, N-terminal part of CD74); expressed in transfected cells; host or cells: Ba/F3 (murine pro-B), retroviral transduction, IL-3 withdrawn; the other entry of the earlier key: CD74 (P04233, HLA class II histocompatibility antigen gamma chain)
Procedure: as §1, §2

[5] = test system: CD74-ROS1-rearranged lung adenocarcinoma with acquired CD74-ROS1 D2033N mutation; test: Patient case: cabozantinib after acquired crizotinib resistance (phase II trial NCT01639508), RECIST v1.1; type: in vivo, human; settings: one patient, 60 mg daily, at 12 weeks
Procedure: The patient received cabozantinib at a dose of 60 mg daily in 28-day cycles as part of an ongoing phase II clinical trial (NCT01639508) with an arm for ROS1-rearranged lung cancers. Inclusion criteria for patients in this trial were as follows: pathologic or cytologic evidence of non-small-cell lung cancer (NSCLC), clinical stage IV or recurrent/medically inoperable disease, a Karnofsky performance status of more than 70%, a life expectancy of more than 12 weeks, adequate hematologic, renal, and hepatic function, and measurable disease. Informed consent was obtained after the nature and possible consequences of the studies were explained. Treatment was discontinued in the event of disease progression, unacceptable toxicity, or patient withdrawal. Dose reductions were permitted as per a prescribed algorithm. Response was assessed using the Response Evaluation Criteria in Solid Tumors (RECIST) version 1.1 (Eisenhauer E A et al, Eur J Cancer 45, 228-247 (2009); incorporated by reference herein). Imaging was performed at baseline, 4 weeks, and every 8 weeks thereafter. In addition, scans to confirm response were performed as per RECIST. […]
Of 644 sequencing reads over that specific region of ROS1 that were at […] depth, the variant frequency of c.6097G>A was 14% in the crizotinib-resistant tumor specimen and undetectable the matched normal peripheral blood control. […]

T1 sequence (P08922 1883-2347 D2033N limits assumed): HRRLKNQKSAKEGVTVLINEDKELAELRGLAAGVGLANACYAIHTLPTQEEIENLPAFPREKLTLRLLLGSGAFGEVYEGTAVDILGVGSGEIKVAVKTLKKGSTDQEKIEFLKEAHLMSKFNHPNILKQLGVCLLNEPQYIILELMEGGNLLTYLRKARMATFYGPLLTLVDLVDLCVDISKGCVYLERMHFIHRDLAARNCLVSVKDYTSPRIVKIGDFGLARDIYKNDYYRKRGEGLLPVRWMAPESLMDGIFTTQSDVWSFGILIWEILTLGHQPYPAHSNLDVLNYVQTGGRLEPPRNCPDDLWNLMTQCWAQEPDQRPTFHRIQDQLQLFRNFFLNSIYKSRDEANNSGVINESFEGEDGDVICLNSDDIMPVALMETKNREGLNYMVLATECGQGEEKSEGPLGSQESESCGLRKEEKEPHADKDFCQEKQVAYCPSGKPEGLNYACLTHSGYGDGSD
T2 sequence (P08922 with tags, fused parts or gaps): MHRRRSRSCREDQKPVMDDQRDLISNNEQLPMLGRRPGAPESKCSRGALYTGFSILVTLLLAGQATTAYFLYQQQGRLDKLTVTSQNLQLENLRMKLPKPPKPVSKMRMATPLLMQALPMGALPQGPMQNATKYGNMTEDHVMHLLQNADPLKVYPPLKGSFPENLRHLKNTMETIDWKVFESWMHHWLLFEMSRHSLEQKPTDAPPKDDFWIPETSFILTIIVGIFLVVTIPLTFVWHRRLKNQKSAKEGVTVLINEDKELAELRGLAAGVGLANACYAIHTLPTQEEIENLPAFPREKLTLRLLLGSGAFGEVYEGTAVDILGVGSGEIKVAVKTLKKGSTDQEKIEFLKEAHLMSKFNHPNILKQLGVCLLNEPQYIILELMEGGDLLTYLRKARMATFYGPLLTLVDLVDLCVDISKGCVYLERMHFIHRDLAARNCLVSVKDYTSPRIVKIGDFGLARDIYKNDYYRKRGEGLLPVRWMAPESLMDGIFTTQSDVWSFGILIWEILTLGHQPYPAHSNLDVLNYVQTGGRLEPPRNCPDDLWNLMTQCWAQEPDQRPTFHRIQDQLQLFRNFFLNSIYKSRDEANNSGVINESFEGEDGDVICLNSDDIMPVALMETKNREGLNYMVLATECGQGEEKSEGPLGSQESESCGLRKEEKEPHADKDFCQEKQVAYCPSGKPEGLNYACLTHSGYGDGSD

For C[C@@H](Oc1cc(-c2cnn(C3CCNCC3)c2)cnc1N)c1c(Cl)ccc(F)c1Cl [crizotinib], which “time on drug until widespread disease progression” value [1] is on record?
The value was 26 months.

What about the “clinical response (in words)” value ([1]; RECIST v1.1) of the same molecule?
The value was “durable partial response”.

And the “reduction in disease burden” value ([1]; RECIST v1.1)?
The value was 64%.

And the “inhibition of phosphorylation of ROS1 and downstream effectors SHP2, ERK1/2, AKT and STAT3” value (Ba/F3 CD74-ROS1 cells)?
Its value is “dose-dependent inhibition”.

And the median progression-free survival [2]?
The median progression-free survival was 19 months.

What about the response rate [2] of the same molecule?
Its response rate is 72%.

Which IC50 ([3]; read-out: IC50, growth inhibition, Ba/F3 CD74-ROS1D2033N cells, 72 h exposure) does the source give for COc1cc2nccc(Oc3ccc(NC(=O)C4(C(=O)Nc5ccc(F)cc5)CC4)cc3)c2cc1OC [cabozantinib] here?
The IC50 was 2.8 nM.

And the IC50 [4]?
Its IC50 is 0.78 nM.

What about the “reduction in disease burden” value [5] of the same molecule?
The value was 92%.

For COc1cc2c(Oc3ccc(NC(=O)C4(C(=O)Nc5ccc(F)cc5)CC4)cc3F)ccnc2cc1OCCCN1CCOCC1 [foretinib], which “sensitivity of CD74-ROS1D2033N mutant (in words)” value ([3]; Ba/F3 cells, 72 h) is on record?
The value was “remained highly sensitive”.

With Cc1cc(Nc2ncc(Cl)c(Nc3ccccc3S(=O)(=O)C(C)C)n2)c(OC(C)C)cc1C1CCNCC1 [ceritinib] as the molecule, how does the “fold decrease in sensitivity, CD74-ROS1D2033N compared to native CD74-ROS1” value ([3]; Ba/F3 cells, 72 h, ratio of IC50) read?
The value was 4.3 fold.
